# Data from patent US20250154105A1, “POLYCYCLIC COMPOUND AND USE THEREOF” (TYK MEDICINES, INC., priority 2021, published 2025).
# Test system: human pleural mesothelioma cells NCI-H226
# Experiment: Cell anti-proliferation experiment (CCK8), NCI-H226
# Format: cell-based
# Summary of the method: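 Viability was measured by CCK-8 (3 h, A450) after 3-day treatment with 0.15–333.33 nM compound in 0.1% DMSO medium. Curve-fitted IC50 was based on viability normalised to no-drug and cell-free controls.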
row,SMILES,IC50
1,CNS(=O)(=O)c1ccc2c(c1)c1cn(C)nc1c(=O)n2-c1ccc(C(F)(F)F)cc1 [Example T-32],≤ 1000 nM
2,Cc1cc(=O)n(-c2ccc(C(F)(F)F)cc2)c2ccc(C(=O)N[C@@H](C)c3ccccn3)cc12 [Example T-277],≤ 1000 nM

# The remaining lines, values ahead:
row,IC50,SMILES
1,≤ 1000 nM,C[C@H](NC(=O)c1ccc2c(c1)c1nn(C)cc1c(=O)n2-c1ccc(C(F)(F)F)cc1)c1ccccn1 [Example T-105]
2,≤ 1000 nM,C[C@H](NC(=O)c1ccc2c(c1)c1cnccc1c(=O)n2-c1ccc(C(F)(F)F)cc1)c1ccccn1 [Example T-253]
3,≤ 1000 nM,C[C@H](NC(=O)c1ccc2c(c1)c1ccccc1c(=O)n2-c1ccc(C(F)(F)F)cc1)c1ccccn1 [Example T-272]
